Reference: patent US20250360185A1, “COMPOSITIONS COMPRISING PEDF-DERIVED SHORT PEPTIDES FOR THE TREATMENT OF DRY EYE DISEASES” (BRIM Biotechnology, Inc., priority 2022, published 2025)

Legend:
[1] = test system: subjects with DED; experiment: Visual analog scale (VAS) ocular symptom ratings, clinical study with CAE model; type: in vivo, human
Procedure: (§1) A multi-center, randomized, double masked, placebo controlled clinical study was conducted to assess the safety and efficacy of BRM421 ophthalmic solution (OS) in subjects with DED using a controlled adverse environment (CAE®) model (Ora, Inc., Andover, MA, USA). CAE® uses controlled ocular surface stress to exacerbate the signs and symptoms of DED in a safe and controllable manner.
(§2) During the first visit (Day-7±1), the subjects were screened, evaluated before CAE®, exposed to CAE®, evaluated after CAE®, and started with the placebo run-in period (7±1 days). During the 7-day study run-in period (for the purpose of subject selection) prior to randomization, all subjects received Placebo OS bilaterally, three times daily (TID). During the second visit, subjects were evaluated before CAE®, exposed to CAE®, and evaluated after CAE®. These evaluations formed the baseline measurements. The subjects were then randomized into two groups to receive either BRM421 ophthalmic solution (OS) or Placebo OS (Vehicle) bilaterally three times daily (TID) for 14 days from Visit 2 to Visit 4.
During these visits, subjects were evaluated for symptom efficacy. Specifically, visual analog scale (VAS) was measured by asking subjects to rate each ocular symptom due to ocular dryness. Symptoms assessed include burning/stinging, itching, foreign body sensation, blurred vision, eye dryness, photophobia, and pain.

[2] = test system: subjects with DED; experiment: Ora Ocular Discomfort & 4-Symptom Questionnaire (ODS) diary, clinical study with CAE model; type: in vivo, human; conditions: for Diary Dryness Change from Baseline, ANCOVA LS Mean (SE) / Diary Dryness Change from Baseline, Mean (SD) / Diary Burning Change from Baseline, ANCOVA LS Mean (SE) / Diary Ocular Discomfort Change from Baseline, ANCOVA LS Mean (SE) / Diary Burning Change from Baseline, Mean (SD) / Diary Ocular Discomfort Change from Baseline, Mean (SD): ITT observed data; for Diary Dryness Change from Baseline, Mean (SD) / Diary Burning Change from Baseline, Mean (SD) / Diary Ocular Discomfort Change from Baseline, Mean (SD): score 0 = None to 5 = Worst
Procedure: as §1, §2
Subjects were also asked to grade the severity of their dry eye disease symptoms in their diary in the morning and in the evening before instilling the study drug. The Ora Ocular Discomfort & 4-Symptom Questionnaire (ODS Questionnaire) was used, which included rating the severity of 5 symptoms: ocular discomfort, burning, dryness, grittiness, and stinging. Each symptom rating ranged from 0 to 5, where 0=None and 5=Worst.

[3] = Day 1 to Day 7, morning, pre-CAE baseline
[4] = Day 8 to 15, Evening, score 0-5
[5] = Day 8 to 15, Morning, score 0-5

SLGAEQRTESIIHRALYYDLISSPDIHGT (listed as Homo sapiens) [BRM421, PEDF-derived short peptide, 29mer, residues 93-121; tested as BRM421 ophthalmic solution (OS)]
Onset of effects ([1]; inferred from significant difference to placebo at Visit 3): relatively fast onset | VAS burning/stinging (FIG. 4B) ([1]; patients with both DED and cataract, pre-CAE and post-CAE evaluations): very significant improvements | VAS burning/stinging (FIG. 4A) ([1]; patients with only DED (without cataract), pre-CAE or post-CAE evaluations): no significant improvements | VAS dryness (FIG. 4G, FIG. 4H) ([1]; subjects with cataract regardless of the surgery status, pre-CAE and post-CAE evaluations): significant improvements | VAS dryness compared to placebo (FIG. 4F) ([1]; subjects with cataract, pre-CAE and post-CAE evaluations): significant improvements | VAS dryness compared to placebo (FIG. 4E) ([1]; subjects without cataract, pre-CAE and post-CAE evaluations): did not show significant improvements | Diary Dryness Change from Baseline, ANCOVA LS Mean (SE) ([2]; Day 1 to 7, Evening, score 0-5): −0.243 (0.0484) | Diary Dryness Change from Baseline, Mean (SD) ([2]; Day 1 to 7, Evening): −0.241 (0.5137) | Diary Dryness Change from Baseline, ANCOVA LS Mean Difference (SE), BRM421 OS − Placebo ([2]; Day 1 to 7, Evening, score 0-5): −0.145 (0.0671) | Diary Dryness Change from Baseline, Two-Sample t-test Mean Difference (SE), BRM421 OS − Placebo ([2]; Day 1 to 7, Evening, score 0-5): −0.140 (0.0673) | Diary Burning Change from Baseline, ANCOVA LS Mean (SE) ([2]; Day 1 to 7, Morning, score 0-5): −0.254 (0.0528) | Diary Ocular Discomfort Change from Baseline, ANCOVA LS Mean (SE) ([2]; Day 1 to 7, Morning, score 0-5): −0.138 (0.0518) | Diary Burning Change from Baseline, Mean (SD) ([2]; Day 1 to 7, Morning): −0.256 (0.5580) | Diary Ocular Discomfort Change from Baseline, Mean (SD) ([2]; Day 1 to 7, Morning): −0.149 (0.5064) | Diary Burning Change from Baseline, ANCOVA LS Mean Difference (SE), BRM421 OS − Placebo ([2]; Day 1 to 7, Morning, score 0-5): −0.173 (0.0731) | Diary Burning Change from Baseline, Two-Sample t-test Sample Mean Difference (SE), BRM421 OS − Placebo ([2]; Day 1 to 7, Morning, score 0-5): −0.172 (0.0742) | Diary Ocular Discomfort Change from Baseline, ANCOVA LS Mean Difference (SE), BRM421 OS − Placebo ([2]; Day 1 to 7, Morning, score 0-5): −0.146 (0.0717) | Diary Ocular Discomfort Change from Baseline, Two-Sample t-test Sample Mean Difference (SE), BRM421 OS − Placebo ([2]; Day 1 to 7, Morning, score 0-5): −0.152 (0.0727) | Diary ocular discomfort and burning improvement from baseline compared to placebo ([2]; Day 1 to Day 7, evening): not significant in the evening | Diary dryness improvement from baseline compared to placebo (FIG. 3A) ([2]; Day 1 to Day 7, evening, pre-CAE baseline): significantly better improvement | Diary dryness improvement from baseline compared to placebo (FIG. 3A) [2, 3]: not significantly better in the morning | Diary ocular discomfort and burning improvement from baseline compared to placebo [2, 3]: significantly better improvements | Diary Dryness Change from Baseline, ANCOVA LS Mean (SE) [2, 4]: −0.377 (0.0651) | Diary Dryness Change from Baseline, Mean (SD) ([2]; Day 8 to 15, Evening): −0.382 (0.6917) | Diary Dryness Change from Baseline, ANCOVA LS Mean Difference (SE), BRM421 OS − Placebo [2, 4]: −0.036 (0.0901) | Diary Dryness Change from Baseline, Two-Sample t-test Sample Mean Difference (SE), BRM421 OS − Placebo [2, 4]: −0.029 (0.0915) | Diary Burning Change from Baseline, ANCOVA LS Mean (SE) [2, 5]: −0.313 (0.0640) | Diary Ocular Discomfort Change from Baseline, ANCOVA LS Mean (SE) [2, 5]: −0.223 (0.0656) | Diary Burning Change from Baseline, Mean (SD) ([2]; Day 8 to 15, Morning): −0.332 (0.7199) | Diary Ocular Discomfort Change from Baseline, Mean (SD) ([2]; Day 8 to 15, Morning): −0.248 (0.6696) | Diary Burning Change from Baseline, ANCOVA LS Mean Difference (SE), BRM421 OS − Placebo [2, 5]: −0.048 (0.0884) | Diary Burning Change from Baseline, Two-Sample t-test Sample Mean Difference (SE), BRM421 OS − Placebo [2, 5]: −0.048 (0.0939) | Diary Ocular Discomfort Change from Baseline, ANCOVA LS Mean Difference (SE), BRM421 OS − Placebo [2, 5]: −0.049 (0.0906) | Diary Ocular Discomfort Change from Baseline, Two-Sample t-test Sample Mean Difference (SE), BRM421 OS − Placebo [2, 5]: −0.058 (0.0936) | ODS dryness versus placebo (FIG. 3B) ([2]; Visit 3, both pre-CAE and post-CAE evaluations as baselines): no significant difference | ODS burning and ODS stinging versus placebo (FIG. 3B) ([2]; Visit 3, post-CAE evaluations): significant effects
